Reference: patent US5616604A, “Aminopyrrolizinone analogues for anti-inflammation and analgesia (II)” (priority 1996, dated 1997)

Columns and labels:
[1] = system: mouse writhing induced by acetic acid; assay: inhibition of acetic acid-induced writhe in mice; format: in vivo; details: oral, female mice, dose/LD50: SFZ-47 1/15, SFZ-58 1/10, ibuprofen 1/5, indomethacin 1/4; for Numb. of writhing (x ± SD): 0.7% acetic acid i.p. 1 h later, 20 min observation, N.S. 17.0 ± 6.8; for Rate of inhibition (%): writhing vs normal saline
Method: The influence of SFZ-47, 58 on inhibition of acetic acid-induces writhe.
SFZ-47 and SFZ-58 were suspended in 0.5% carboxymethylcellulose (CMC) and administered per os. to female mice of weight 18-24 g. 1 hour later, 0.2 ml of a 0.7% solution of acetic acid was injected to mouse by intraperironeally. The animals were observed during the next 20 min. for writhe.

[2] = system: carrageenin-induced paw edema; assay: inhibition of carrageenin-induced paw edema in rat; format: in vivo; details: oral, male rats, dose/LD50: SFZ-47 1/15, SFZ-58 1/10, ibuprofen 1/5, indomethacin 1/4; for carrageenin-induced paw edema, 1 hour: N.S. 0.40 ± 0.00; for carrageenin-induced paw edema, 2 hours: N.S. 0.78 ± 0.09; for carrageenin-induced paw edema, 3 hours: N.S. 0.75 ± 0.09; for carrageenin-induced paw edema, 4 hours: N.S. 0.75 ± 0.05; for carrageenin-induced paw edema, 5 hours: N.S. 0.76 ± 0.09
Method: The influence of SFZ-47, 58 on inhibition of Carrageenin-Induced Paw Edema in Rat.
The test agent was administered by oral liquid to male rats of weight 140-180 g. 0.05 ml of 1% carrageenin injected into the pad of the right hind paw 1 hour later. The perimeter of the rat ankles were measured each hour after compound administration.

gastric mucosa of rats = assay: effects on gastric mucosa of rats (ulcer index); format: in vivo, rat; details: n = 5, SFZ-47 400 mg/kg, SFZ-58 300 mg/kg, ibuprofen 200 mg/kg, indomethacin 10 mg/kg
Description: Effects of SFZ-47 and SFZ-58 on gastric mucosa of rats

cerebral circulation = details: prior art, cited from earlier work
splanchnic vascular bed = details: prior art, in words; cited from earlier work

Compound	Numb. of writhing (x ± SD) [1]	Rate of inhibition (%) [1] [%]	carrageenin-induced paw edema, 1 hour [2]	carrageenin-induced paw edema, 2 hours [2]	carrageenin-induced paw edema, 3 hours [2]	carrageenin-induced paw edema, 4 hours [2]	carrageenin-induced paw edema, 5 hours [2]	Ulcer index (gastric mucosa of rats) [mm^2]	cerebral blood flow response to hypercapnia (cerebral circulation; in words)	decrease of cerebral blood flow (cerebral circulation)	blood flow in the splanchnic vascular bed (splanchnic vascular bed)
CC(C)Cc1ccc(C(C)C(=O)O)cc1 (stereo not shown) [Ibuprofen]	4.3 ± 3.9	75	0.29 ± 0.06	0.41 ± 0.11	0.52 ± 0.00	0.51 ± 0.00	0.47 ± 0.10	13.3 ± 4.2	–	–	–
COc1ccc2c(c1)c(CC(=O)O)c(C)n2C(=O)c1ccc(Cl)cc1 [Indomethacin]	2.7 ± 1.5	84	0.21 ± 0.18	0.33 ± 0.08	0.45 ± 0.08	0.43 ± 0.13	0.43 ± 0.13	14.0 ± 6.9	abolishing cerebral blood flow response to hypercapnia	25-35%	diminishes blood flow in the splanchnic vascular bed
